Experiment [1] addresses T1, CRAF (Homo sapiens, UniProt P04049, Y340D/Y341D).
T1 construct: GST (N); purchased Millipore 14-352; host or cells: insect cells
Briefly: In vitro RAF kinase biochemical assay, activated CRAF. How it is done:
1) Test compounds in DMSO were serially diluted and plated into 384-well assay plates at 1 μL/well.
2) Added were 15 μL/well of RAF enzyme and biotinylated-MEK1 substrate in kinase buffer.
3) Added were 4 μL of ATP (500 μM) in kinase buffer.
5) After a brief spin down, the plate was incubated at about room temperature for 40-50 minutes. 6) Added was 5 μL of Stop buffer at final EDTA 20 mM; anti-phospho-MEK1 1:2,500; donor/acceptor beads 3 μg/mL. 7) After brief spin down, the plate was incubated at room temperature for about 3 hours. 8) The plate was read on the Envision multilabel plate reader (Perkin Elmer). […] 2. Results

The test system of experiment [2] is pERK in A375 cells (BRAF^V600E, homozygous). Kind of experiment: Phospho-ERK AlphaScreen assay, pERK inhibition in A375. In kind it is cell-based. Conditions: Homo sapiens, A-375, 1 h, read-out: pERK inhibition IC50 A375. The method, then:
(§1) Phospho-ERK AlphaScreen® assay: The degree of ERK phosphorylation was determined using an AlphaScreen® assay where an increase in ERK1/2 phosphorylation at Thr202/Tyr204 brought the donor and acceptor AlphaScreen® beads into close proximity, generating a signal for quantification. To determine the effects of compound treatment on phosphorylation of ERK1/2, cells were plated in a 96-well plate and treated with an 8-point titration of compound for one hour at 37° C. before lysis. To detect pERK, cell lysates were incubated with streptavidin-coated AlphaScreen® donor beads, anti-mouse IgG AlphaScreen® acceptor beads, a biotinylated anti-ERK1/2 rabbit antibody, and a mouse antibody that recognizes ERK1/2 only when it is phosphorylated on Thr202 and Tyr204. The biotinylated ERK1/2 antibody binds to both the streptavidin-coated AlphaScreen® donor beads and to ERK1/2 (regardless of its phosphorylation state), and the phospho-ERK1/2 antibody binds to the acceptor beads and to ERK1/2 that is phosphorylated at Thr202/Tyr204. An increase in ERK1/2 phosphorylation at Thr202/Tyr204 brings the donor and acceptor AlphaScreen® beads into close proximity, generating a signal that can be quantified on an EnVision reader (Perkin Elmer).
(§2) Using AlphaScreen® technology, the ability of Formula I to affect the phosphorylation of ERK and MEK in the cells was measured quantitatively. Following treatment with compound, the cells were lysed, and a sample of the lysate was transferred to an assay plate. The lysate was mixed with antibodies directed against total ERK/MEK, antibodies that recognize specific phosphorylation sites on ERK/MEK, AlphaScreen® anti-mouse IgG Acceptor beads, and Streptavidin Donor beads. Upon excitation of the donor beads with laser light at 680 nm, singlet oxygen was produced. This singlet oxygen was rapidly quenched, unless the AlphaScreen® Acceptor beads were in close proximity, in which case a proximity signal can be measured at 580 nm. In the presence of phosphorylated ERK/MEK, there is a very strong proximity signal.
(§3) 1. One day before the assay, 50,000 cells were plated in each well of a 96-well tissue-culture-treated plate (Corning #3610) in a 50 μL volume. Cells were incubated at 37° C. overnight.
(§4) 2. Compounds were diluted in DMSO to 500× final concentration. Each compound was plated as an 8-point titration, using 1:3 dilutions in DMSO. The maximum concentration was about 5 mM.
(§5) 3. 1 μl of compound was added to each well of a 96-well polypropylene plate (Corning #3363). For A375, COLO829, SK-MEL-3, HCT116, and HT-29, the high control was DMSO, and the low control was 10 μM PLX4720 (CAS No. 918505-84-7). For B9 and IPC-298, the high control was 3.33 μM PLX4720, and the low control was DMSO. 4. 249 μL growth media was added to compounds, diluting them 250-fold. 5. […] The compound was incubated with the cells at 37° C. for one hour. 6. The media was aspirated, and the cells were lysed in 50 μL of ice-cold 1× Cell Lysis buffer. The plates were incubated on ice for 5 minutes to allow complete lysis of the cells. 7. A mixture of biotinylated donor antibody, acceptor antibody, and anti-mouse IgG AlphaScreen® acceptor beads in 1× AlphaLISA immunoassay buffer was prepared. 8. 5 μL of lysate was transferred to a 384-well assay plate (Perkin Elmer #6005359). 5 μL of the antibody and acceptor bead mixture was added. The plates were spinned.

Experiment [3] concerns pERK in HCT116 cells (KRAS^G13D). Kind of experiment: Phospho-ERK AlphaScreen assay, pERK activation in HCT116. In kind it is cell-based. As to conditions: Homo sapiens, HCT-116. The method, then:
as §1, §2, §3, §4, §5

Experiment [4] has as its system pERK in IPC-298 cells (NRAS^Q61L). Briefly: Phospho-ERK AlphaScreen assay, pERK activation in IPC-298. Format: cell-based, human. Conditions: for EC50: Homo sapiens. How it is done: as §1, §2, §3, §4, §5
The test system of experiment [5] is phospho-ERK1/2 (T202/Y204, pERK) in RAS mutant and BRAF^V600E cell lines. Briefly: pERK screen in cell line panel: ERK pathway inhibition index (EPII). In kind it is cell-based. Conditions: for pERK activation in RAS mutant cell lines (in words): at the concentrations tested; for ERK pathway inhibition index (EPII): ratio between mean pERK activation EC50 (B9, IPC-298, HCT116) and mean pERK inhibition IC50 (A375, COLO829). How it is done: as §1

[6] abbreviates: Table 1, average of more than 4 experiments.
[7] abbreviates: HCT116, KRAS^G13D, concentration increasing pERK to 50% compared to positive control 10 μM PLX4720, read-out: pERK activation EC50 HCT116.
Where [8] appears, read: read-out: pERK activation Mean EC50, HCT116.
[9] abbreviates: IPC-298, read-out: pERK activation Mean EC50, IPC-298.
Where [10] appears, read: IPC-298, NRAS^Q61L, concentration increasing pERK to 50% compared to positive control 10 μM PLX4720, read-out: pERK activation EC50 IPC298.
Setting [11] is: A375, BRAF^V600E homozygous, one hour treatment.

Like-named read-outs stand apart in the source and are kept apart here. A value given as a limit tells only on which side of the number the result lay.

T1 sequence (P04049 307-648 Y340D/Y341D): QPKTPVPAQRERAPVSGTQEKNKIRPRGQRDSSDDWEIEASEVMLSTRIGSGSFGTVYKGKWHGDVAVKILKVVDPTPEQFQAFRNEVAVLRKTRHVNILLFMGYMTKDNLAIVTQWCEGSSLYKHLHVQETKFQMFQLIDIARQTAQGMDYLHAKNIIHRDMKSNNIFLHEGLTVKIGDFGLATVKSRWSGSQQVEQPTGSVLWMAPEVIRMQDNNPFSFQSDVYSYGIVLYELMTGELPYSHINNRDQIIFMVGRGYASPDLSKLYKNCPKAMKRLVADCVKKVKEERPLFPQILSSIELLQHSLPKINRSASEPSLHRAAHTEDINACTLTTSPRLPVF

For `O=C(c1c(F)ccc(NS(=O)(=O)N2CC[C@@H](F)C2)c1F)c1c[nH]c2ncc(-c3cnc(C4CC4)nc3)cc12` [Formula I, (3R)—N-[3-[5-(2-cyclopropylpyrimidin-5-yl)-1H-pyrrolo[2,3-b]pyridine-3-carbonyl]-2,4-difluorophenyl]-3-fluoropyrrolidine-1-sulfonamide], the IC50 in experiment [1] (setting [6]) was 0.091 µM; in experiment [1] (Table 3, ATP 100 μM), 0.0226 µM; in experiment [2] it was 0.016 µM. The EC50 is > 200 µM in experiment [3] (setting [7]), 10 µM in experiment [3] (setting [8]), 10 µM in experiment [4] (setting [9]) and > 200 µM in experiment [4] (setting [10]). Moreover, in experiment [5], the “pERK activation in RAS mutant cell lines (in words)” value is given as “essentially no pERK activation”. Moreover, in experiment [5], the “ERK pathway inhibition index (EPII)” value is listed as >10,000.
Regarding `CCN(C)S(=O)(=O)Nc1ccc(F)c(C(=O)c2c[nH]c3ncc(-c4cnc(C5CC5)nc4)cc23)c1F` [Formula II, 5-(2-cyclopropylpyrimidin-5-yl)-3-[3-[[ethyl(methyl)sulfamoyl]amino]-2,6-difluoro-benzoyl]-1H-pyrrolo[2,3-b]pyridine], the IC50 in experiment [1] (setting [6]) turned out to be 0.023 µM; in experiment [2] (setting [11]), 0.0035 µM. For the same compound, the concentration giving a half-maximal response (EC50) in experiment [3] (setting [7]) and in experiment [4] (setting [10]) was > 200 µM each time. Besides, the “MAPK signaling / pERK increase in IPC-298 (in words)” value in experiment [4] (FIG. 1(B), NRAS^Q61L) is reported as “negligible pERK increase”. Moreover, in experiment [5], the “pERK activation in RAS mutant cell lines (in words)” value is reported as “essentially no pERK activation”. Moreover, the “ERK pathway inhibition index (EPII)” value in experiment [5] is reported as >50,000.
For `CCCS(=O)(=O)Nc1ccc(F)c(C(=O)c2c[nH]c3ncc(-c4ccc(Cl)cc4)cc23)c1F` [Vemurafenib, vemurafenib, reference compound], in experiment [2] (setting [11]), the IC50 was determined as 0.032 µM. For the same compound, the EC50 was 0.34 µM in experiment [3] (setting [7]), 0.286 µM in experiment [3] (setting [8]), 0.84 µM in experiment [4] (setting [9]) and 0.54 µM in experiment [4] (setting [10]).

Values taken from patent US9814714B2, “Kinase modulation, and indications therefor” (Plexxikon Inc., priority 2015, dated 2017).
